Results published in patent publication US20230192617A1, “AZABICYCLIC(THIO)AMIDES AS FUNGICIDAL COMPOUNDS” (Bayer CropScience Aktiengesellschaft, priority 2020, published 2023).

Experiments:
Alternaria alternata = Alternaria alternata in vitro cell test; assay type: cell-based; settings: 120 h, 20 ppm of active ingredient, liquid culture, 5 days incubation, spectrometric measurement of mycelium growth, read-out: efficacy (inhibition of fungal growth)
Summary of the method: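 Spectrometric readout of mycelial growth after 5-day incubation gauged compound effects on spore germination and growth of A. alternata in liquid medium. Compounds were delivered in DMSO at ≤1% final. Absorbance was compared with untreated controls to give inhibition.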

Alternaria brassicae = assay: In vivo preventive test on Alternaria brassicae (leaf spot on radish or cabbage); settings: 500 ppm of active ingredient, preventive spray on radish or cabbage, evaluated 3 to 4 days after inoculation, read-out: efficacy
Summary of the method: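 Protective spray on young radish or cabbage: actives in water diluted from DMSO/acetone/Tween 80, with solvent-only controls. Leaves were challenged after 24 h with a spore suspension, and plants were held at 100% RH, 20 °C for 3 to 4 days.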

[1] = system: Colletotrichum lindemuthianum; assay: B-8. Colletotrichum lindemuthianum in vitro cell test; assay type: cell-based; settings: 144 h, 20 ppm of active ingredient, 6 days incubation, liquid culture, absorbance, read-out: efficacy (inhibition of fungal growth)
Summary of the method: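 Liquid-culture germination/growth test: compounds in ≤1% final DMSO were added to spore-containing medium. Fungal growth was quantified spectrophotometrically after 6 days of incubation and expressed as inhibition versus untreated controls.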

Botrytis cinerea [2] = assay: In vivo preventive test on Botrytis cinerea (grey mould); settings: 500 ppm of active ingredient, preventive spray on gherkin or cabbage, evaluated 4 to 5 days after inoculation, read-out: efficacy
Summary of the method: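 Preventive spray on cabbage or gherkin seedlings, with compound formulated in DMSO/acetone/Tween 80 and water-diluted, preceded spore inoculation by 24 hours. Cabbage was held 4 to 5 days at 20° C., 100% relative humidity; gherkin 4 to 5 days at 17° C., 90% relative humidity.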

[3] = Measurement of Log P values by HPLC on reversed phase columns (EEC directive 79/831 Annex V.A8); assay type: physicochemical; settings: reversed phase HPLC column
Summary of the method: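 Log P derived from retention on reversed-phase columns (EEC directive 79/831 Annex V.A8), LC-UV, acetonitrile gradient 10% to 95% against water containing 0.1% formic acid, 0.001 M ammonium acetate, or 0.1% phosphoric acid; several values per method separated by "+".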

Sphaerotheca fuliginea = assay: In vivo preventive test on Sphaerotheca fuliginea (powdery mildew on cucurbits); settings: Podosphaera fuliginea, 192 h; 500 ppm of active ingredient; preventive spray on gherkin; evaluated 8 days after inoculation; read-out: efficacy
Protocol: B-4. in vivo preventive test on Sphaerotheca fuliginea (powdery mildew on cucurbits) [table] The active ingredients were made soluble and homogenized in a mixture of Dimethyl sulfoxide/Acetone/Tween® 80 and then diluted in water to the desired concentration. The young plants of gherkin were treated by spraying the active ingredient prepared as described above. Control plants were treated only with an aqueous solution of Acetone/Dimethyl sulfoxide/Tween® 80. After 24 hours, the plants were contaminated by spraying the leaves with an aqueous suspension of Sphaerotheca fuliginea spores. The contaminated gherkin plants were incubated for 8 days at 20° C. and at 70-80% relative humidity.

Botrytis cinerea [4] = assay: B-11. Botrytis cinerea in vitro cell test; assay type: cell-based; settings: 144 h, 20 ppm of active ingredient, 6 days incubation, liquid culture, absorbance, read-out: efficacy (inhibition of fungal growth)
Protocol: (§1) B-11. Botrytis cinerea In Vitro Cell Test [table] Fungicides were solubilized in DMSO and the solution used to prepare the required range of concentrations. The final concentration of DMSO used in the assay was ≤1%. A spore suspension of B. cinerea was prepared and diluted to the desired spore density. Fungicides were evaluated for their ability to inhibit spore germination and mycelium growth in liquid culture assay. The compounds were added in the desired concentration to the culture medium with spores. After 6 days incubation, fungi-toxicity of compounds was determined by spectrometric measurement of mycelium growth. Inhibition of fungal growth was determined by comparing the absorbance values in wells containing the fungicides with the absorbance in control wells without fungicides.

Pyrenophora teres = assay: B-10. Pyrenophora teres in vitro cell test; assay type: cell-based; settings: 144 h, 20 ppm of active ingredient, 6 days incubation, liquid culture, absorbance, read-out: efficacy (inhibition of fungal growth)
Protocol: as §1, with “B-10. Pyrenophora teres” for “B-11. Botrytis cinerea”, “P. teres” for “B. cinerea”

[5] = method [a]: LC-UV, acidic range, 0.1% formic acid in water and acetonitrile as eluent

O=C(NC[C@H](F)c1ccc(Cl)cc1Cl)c1c(Oc2cccc(C(F)(F)F)c2)cnc2ccccc12 (racemic) [I-043]
inhibition at 20 ppm (Alternaria alternata): 90 to 100%
pest or weed control at 500 ppm (Alternaria brassicae): 90 to 100%
inhibition at 20 ppm [1]: 90 to 100%
pest or weed control at 500 ppm (Botrytis cinerea [2]): 90 to 100%
chromatographic logP [3, 5]: 4.46
pest or weed control at 500 ppm (Sphaerotheca fuliginea): 90 to 100%

O=C(NCC(F)(F)c1ccc(Cl)cc1)c1c(Oc2cncc(C(F)(F)F)c2)nnc2ccccc12 [I-026]
inhibition at 20 ppm (Alternaria alternata): 90 to 100%
pest or weed control at 500 ppm (Alternaria brassicae): 90 to 100%
inhibition at 20 ppm [1]: 90 to 100%
pest or weed control at 500 ppm (Botrytis cinerea [2]): 90 to 100%
chromatographic logP [3, 5]: 3.61
pest or weed control at 500 ppm (Sphaerotheca fuliginea): 90 to 100%

O=C(NCC(F)(F)c1ccc(Cl)cc1)c1c(Oc2cccc(C(F)(F)F)c2)nnc2ccccc12 [I-023]
inhibition at 20 ppm (Alternaria alternata): 90 to 100%
pest or weed control at 500 ppm (Alternaria brassicae): 90 to 100%
inhibition at 20 ppm [1]: 90 to 100%
pest or weed control at 500 ppm (Botrytis cinerea [2]): 90 to 100%
chromatographic logP [3, 5]: 4.13
pest or weed control at 500 ppm (Sphaerotheca fuliginea): 90 to 100%

CC(=O)c1ccc(C(F)(F)CNC(=O)c2c(Oc3cccc(C(F)(F)F)c3)nnc3ccccc23)c(Cl)c1 [I-069]
inhibition at 20 ppm (Botrytis cinerea [4]): 90 to 100%
inhibition at 20 ppm (Alternaria alternata): 80 to 89%
inhibition at 20 ppm (Pyrenophora teres): 90 to 100%
pest or weed control at 500 ppm (Alternaria brassicae): 90 to 100%
inhibition at 20 ppm [1]: 70 to 79%
pest or weed control at 500 ppm (Botrytis cinerea [2]): 90 to 100%
chromatographic logP [3, 5]: 3.84

O=C(NCCc1cccs1)c1c(Oc2cccc(C(F)(F)F)c2)nnc2ccccc12 [I-237]
inhibition at 20 ppm (Botrytis cinerea [4]): 90 to 100%
inhibition at 20 ppm (Alternaria alternata): 90 to 100%
inhibition at 20 ppm (Pyrenophora teres): 90 to 100%
pest or weed control at 500 ppm (Alternaria brassicae): 90 to 100%
inhibition at 20 ppm [1]: 80 to 89%
pest or weed control at 500 ppm (Botrytis cinerea [2]): 70 to 79%
chromatographic logP [3, 5]: 3.53

Cc1ccc(C(F)(F)CNC(=O)c2c(Oc3cccc(C(F)(F)F)c3)cnc3ccccc23)c(C)c1 [I-039, N-[2-(2,4-dimethylphenyl)-2,2-difluoro-ethyl]-3-[3-(trifluoro-methyl)phenoxy]quinoline-4-carboxamide]
inhibition at 20 ppm (Alternaria alternata): 90 to 100%
inhibition at 20 ppm [1]: 90 to 100%
pest or weed control at 500 ppm (Botrytis cinerea [2]): 90 to 100%
chromatographic logP [3, 5]: 4.46
pest or weed control at 500 ppm (Sphaerotheca fuliginea): 90 to 100%

O=C(NCC(F)(F)c1ccccc1Cl)c1c(Oc2cccc(C(F)(F)F)c2)nnc2ccccc12 [I-214]
inhibition at 20 ppm (Botrytis cinerea [4]): 90 to 100%
inhibition at 20 ppm (Alternaria alternata): 90 to 100%
inhibition at 20 ppm (Pyrenophora teres): 90 to 100%
pest or weed control at 500 ppm (Alternaria brassicae): 90 to 100%
inhibition at 20 ppm [1]: 90 to 100%
pest or weed control at 500 ppm (Botrytis cinerea [2]): 90 to 100%
chromatographic logP [3, 5]: 4.12

Cc1ccc(C(F)(F)CNC(=O)c2c(Oc3cccc(Cl)c3F)cnc3nccnc23)c(C)c1 [I-100]
inhibition at 20 ppm (Botrytis cinerea [4]): 90 to 100%
inhibition at 20 ppm (Alternaria alternata): 90 to 100%
inhibition at 20 ppm (Pyrenophora teres): 90 to 100%
pest or weed control at 500 ppm (Alternaria brassicae): 90 to 100%
inhibition at 20 ppm [1]: 90 to 100%
pest or weed control at 500 ppm (Botrytis cinerea [2]): 90 to 100%
chromatographic logP [3, 5]: 3.38

O=C(N[C@H]1CCCc2cc(Br)ccc21)c1c(Oc2cccc(C(F)(F)F)c2)cnc2c1OCCO2 (racemic) [I-111]
pest or weed control at 500 ppm (Alternaria brassicae): 90 to 100%
inhibition at 20 ppm [1]: 90 to 100%
pest or weed control at 500 ppm (Botrytis cinerea [2]): 90 to 100%
chromatographic logP [3, 5]: 4.03
chromatographic logP ([3]; method [b]: LC-UV, neutral range, 0.001 molar ammonium acetate solution in water and acetonitrile as eluent): 3.99
pest or weed control at 500 ppm (Sphaerotheca fuliginea): 90 to 100%

Cc1ccc(C(F)(F)CNC(=O)c2c(Oc3cccc(C(F)(F)F)c3)nnc3cc(C)ccc23)c(C)c1 [I-044]
inhibition at 20 ppm (Alternaria alternata): 90 to 100%
pest or weed control at 500 ppm (Alternaria brassicae): 90 to 100%
inhibition at 20 ppm [1]: 90 to 100%
chromatographic logP [3, 5]: 4.45
pest or weed control at 500 ppm (Sphaerotheca fuliginea): 80 to 89%

O=C(NCC(F)(F)c1ccc(Cl)cc1)c1c(Oc2cccc(Cl)c2)nnc2ccccc12 [I-012]
inhibition at 20 ppm (Alternaria alternata): 90 to 100%
pest or weed control at 500 ppm (Alternaria brassicae): 90 to 100%
inhibition at 20 ppm [1]: 90 to 100%
pest or weed control at 500 ppm (Botrytis cinerea [2]): 90 to 100%
pest or weed control at 500 ppm (Sphaerotheca fuliginea): 90 to 100%
